Earlier results as cited in patent publication US12533310B2, “Fragrance or flavor composition” (Takasago International Corporation, priority 2019, dated 2026).

Assays:
olfactory receptor OR2W1 = target: T1, olfactory receptor OR2W1 (Homo sapiens, UniProt Q9Y3N9); conditions: background art, Patent Literature 4; cited from earlier work
T1 sequence (Q9Y3N9 1-320): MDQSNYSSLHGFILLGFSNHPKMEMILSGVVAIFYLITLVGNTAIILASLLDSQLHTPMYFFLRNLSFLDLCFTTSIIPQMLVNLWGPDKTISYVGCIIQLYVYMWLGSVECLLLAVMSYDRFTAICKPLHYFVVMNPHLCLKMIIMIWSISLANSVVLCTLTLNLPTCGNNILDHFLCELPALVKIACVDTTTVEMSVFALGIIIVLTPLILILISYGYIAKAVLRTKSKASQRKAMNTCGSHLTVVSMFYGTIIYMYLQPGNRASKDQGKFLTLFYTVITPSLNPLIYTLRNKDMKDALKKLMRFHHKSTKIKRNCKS

[1] = background art, Patent Literature 4; cited from earlier work

Q: For `CC(C)c1cccc(C(C)CC=O)c1` (centres unmarked) [florhydral], which “inhibition of the activity of OR2W1” value (olfactory receptor OR2W1) is on record?
A: Its value is “inhibiting the activity of this OR2W1”.

Q: And the “suppression of offensive odor induced by hexanoic acid in sensory testing” value [1]?
A: The value was “suppress an offensive odor induced by hexanoic acid”.
